In US8686184B2, “Neprilysin inhibitors” (Theravance, Inc., priority 2011, dated 2014):

The compounds below were run against T1, human neprilysin (EC 3.4.24.11; NEP) (Homo sapiens, UniProt P08473) (assay: In vitro enzyme inhibition assay at human NEP (fluorogenic peptide substrate)). Conditions: recombinant human NEP; 37° C.; substrate Mca-D-Arg-Arg-Leu-Dap-(Dnp)-OH 10 μM; values given as ranges; read-out: pKi values at human NEP (converted).
T1 construct: purchased R&D Systems, Minneapolis, Minn; 1182-ZN
T1 sequence (P08473 52-750 limits assumed): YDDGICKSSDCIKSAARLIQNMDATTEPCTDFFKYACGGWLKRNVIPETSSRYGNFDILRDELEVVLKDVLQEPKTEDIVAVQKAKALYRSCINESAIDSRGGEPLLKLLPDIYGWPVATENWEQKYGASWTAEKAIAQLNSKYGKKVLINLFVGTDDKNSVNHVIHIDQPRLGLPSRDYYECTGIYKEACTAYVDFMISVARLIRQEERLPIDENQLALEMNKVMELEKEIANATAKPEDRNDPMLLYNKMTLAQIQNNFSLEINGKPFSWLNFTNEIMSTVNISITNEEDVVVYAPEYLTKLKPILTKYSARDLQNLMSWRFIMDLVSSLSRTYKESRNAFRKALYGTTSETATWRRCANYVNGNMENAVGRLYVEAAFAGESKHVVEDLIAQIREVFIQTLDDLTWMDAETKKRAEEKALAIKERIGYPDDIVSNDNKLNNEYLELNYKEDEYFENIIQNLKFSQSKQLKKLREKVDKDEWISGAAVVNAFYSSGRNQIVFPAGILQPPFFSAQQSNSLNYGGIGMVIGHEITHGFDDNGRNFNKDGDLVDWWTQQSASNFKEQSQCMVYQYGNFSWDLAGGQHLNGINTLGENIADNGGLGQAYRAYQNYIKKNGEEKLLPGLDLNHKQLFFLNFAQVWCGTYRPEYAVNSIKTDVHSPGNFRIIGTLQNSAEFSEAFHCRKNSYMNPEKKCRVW
Format: biochemical
Method: In vitro Assays for the Quantitation of Inhibitor Potencies at Human and Rat NEP, and Human ACE
The inhibitory activities of compounds at human and rat neprilysin (EC 3.4.24.11; NEP) and human angiotensin converting enzyme (ACE) were determined using in vitro assays as described below.
Recombinant human NEP and recombinant human ACE were obtained commercially (R&D Systems, Minneapolis, Minn., catalog numbers 1182-ZN and 929-ZN, respectively). The fluorogenic peptide substrate Mca-D-Arg-Arg-Leu-Dap-(Dnp)-OH (Medeiros et al. (1997) Braz. J. Med. Biol. Res. 30:1157-62; Anaspec, San Jose, Calif.) and Abz-Phe-Arg-Lys(Dnp)-Pro-OH (Araujo et al. (2000) Biochemistry 39:8519-8525; Bachem, Torrance, Calif.) were used in the NEP and ACE assays respectively.
The assays were performed in 384-well white opaque plates at 37° C. using the fluorogenic peptide substrates at a concentration of 10 μM in Assay Buffer (NEP: 50 mM HEPES, pH 7.5, 100 mM NaCl, 0.01% polyethylene glycol sorbitan monolaurate (Tween-20), 10 μM ZnSO4; ACE: 50 mM HEPES, pH 7.5, 100 mM NaCl, 0.01% Tween-20, 1 μM ZnSO4).
Test compounds were assayed over the range of concentrations from 10 μM to 20 pM. Test compounds were added to the enzymes and incubated for 30 minute at 37° C. prior to initiating the reaction by the addition of substrate. Reactions were terminated after 20 minutes of incubation at 37° C. by the addition of glacial acetic acid to a final concentration of 3.6% (v/v).
Plates were read on a fluorometer with excitation and emission wavelengths set to 320 nm and 405 nm, respectively Inhibition constants were obtained by nonlinear regression of the data using the equation (GraphPad Software, Inc., San Diego, Calif.): v=v0/[1+(I/K′)] where v is the reaction rate, v0 is the uninhibited reaction rate, I is the inhibitor concentration and K′ is the apparent inhibition constant.
Compounds of the invention were tested in this assay and found to have pKi values at human NEP as follows.

Row | Ki | Compound
1 | 12.6 to 100 nM | O=C(N[C@H](Cc1ccccc1)[C@@H](O)C(=O)O)c1cccc(-c2ccc(Cl)cc2C(=O)O)c1 [Example 10-11, 3′-((1R,2R)-1-Benzyl-2-carboxy-2-hydroxy-ethylcarbamoyl)-4-chloro-biphenyl-2-carboxylic acid]
2 | 12.6 to 100 nM | CC(C)c1ccc(C(=O)N[C@H](Cc2ccccc2)[C@@H](O)C(=O)O)cc1-c1ccncc1 [Example 10-80, (2R,3R)-2-Hydroxy-3-(4-isopropyl-3-pyridin-4-yl-benzoylamino)-4-phenyl-butyric acid]
3 | 12.6 to 100 nM | Cc1ccc(C(=O)N[C@H](Cc2ccccc2)[C@@H](O)C(=O)O)cc1-c1ccc(C(=O)O)cc1 [Example 10-61, 5′-((1R,2R)-1-Benzyl-2-carboxy-2-hydroxy-ethylcarbamoyl)-2′-methyl-biphenyl-4-carboxylic acid]
4 | 1.26 to 10 nM | O=C(N[C@H](Cc1ccccc1Cl)[C@@H](O)C(=O)O)c1cc(Cl)c(F)c(-c2ccccc2C(=O)O)c1 [Example 6-4, 5′-[(1R,2R)-2-Carboxy-1-(2-chlorobenzyl)-2-hydroxy-ethylcarbamoyl]-3′-chloro-2′-fluoro-biphenyl-2-carboxylic acid]
5 | 12.6 to 100 nM | CCc1ccc(C(=O)N[C@H](Cc2ccccc2)[C@@H](O)C(=O)O)cc1NC(=O)Nc1ccccc1 [Example 10-75, (2R,3R)-3-[4-Ethyl-3-(3-phenyl-ureido)-benzoylamino]-2-hydroxy-4-phenyl-butyric acid]
6 | 12.6 to 100 nM | Cc1cc(C(=O)N[C@H](Cc2ccccc2)[C@@H](O)C(=O)O)ccc1-n1c(C)cc(C=O)c1C [Example 10-57, (2R,3R)-3-[4-(3-Formyl-2,5-dimethyl-pyrrol-1-yl)-3-methyl-benzoylamino]-2-hydroxy-4-phenyl-butyric acid]
7 | 12.6 to 100 nM | O=C(N[C@H](Cc1ccccc1)[C@@H](O)C(=O)O)c1ccc(C2CC2)cc1 [Example 10-39, (2R,3R)-3-(4-Cyclopropyl-benzoylamino)-2-hydroxy-4-phenyl-butyric acid]
8 | 1.26 to 10 nM | O=C(N[C@H](Cc1ccccc1)[C@@H](O)C(=O)O)c1cc(F)cc(-c2ccccc2C(=O)O)c1 [Example 10-25, 3′-((1R,2R)-1-Benzyl-2-carboxy-2-hydroxy-ethylcarbamoyl)-5′-fluoro-biphenyl-2-carboxylic acid]
9 | 12.6 to 100 nM | Cc1ccc(C(=O)N[C@H](Cc2ccccc2)[C@@H](O)C(=O)O)cc1Br [Example 10-54, (2R,3R)-3-(3-Bromo-4-methyl-benzoylamino)-2-hydroxy-4-phenyl-butyric acid]
10 | 12.6 to 100 nM | CCc1ccc(C(=O)N[C@H](Cc2ccccc2)[C@@H](O)C(=O)O)cc1NC(=O)NC(CC(C)C)C(=O)O (stereo partly drawn) [Example 10-74, 2-{3-[5-((1R,2R)-1-Benzyl-2-carboxy-2-hydroxy-ethylcarbamoyl)-2-ethyl-phenyl]-ureido}-4-methyl-pentanoic acid]
11 | 12.6 to 100 nM | CC(C)Cc1ccc(C(=O)N[C@H](Cc2ccccc2)[C@@H](O)C(=O)O)cc1 [Example 10-36, (2R,3R)-2-Hydroxy-3-(4-isobutyl-benzoylamino)-4-phenyl-butyric acid]
12 | 12.6 to 100 nM | CC(C)c1ccc(C(=O)N[C@H](Cc2ccccc2)[C@@H](O)C(=O)O)cc1-c1cccc(C(=O)N(C)C)c1 [Example 10-81, (2R,3R)-3-[(3′-Dimethylcarbamoyl-6-isopropyl-biphenyl-3-carbonyl)-amino]-2-hydroxy-4-phenyl-butyric acid]
13 | ≤ 1 nM | CCc1ccc(C(=O)N[C@H](Cc2ccccc2)[C@@H](O)C(=O)O)cc1-n1c(=O)[nH]c2sc(C)cc2c1=O [Example 10-65, (2R,3R)-3-[4-Ethyl-3-(6-methyl-2,4-dioxo-1,4-dihydro-2H-thieno[2,3-d]pyrimidin-3-yl)-benzoylamino]-2-hydroxy-4-phenyl-butyric acid]
14 | 12.6 to 100 nM | CCCCc1ccc(C(=O)N[C@H](Cc2ccccc2)[C@@H](O)C(=O)O)cc1 [Example 10-35, (2R,3R)-3-(4-Butyl-benzoylamino)-2-hydroxy-4-phenyl-butyric acid]
15 | 1.26 to 10 nM | CCc1ccc(C(=O)N[C@H](Cc2ccccc2)[C@@H](O)C(=O)O)cc1-c1ccccc1C(=O)O [Example 10-19, 5′-((1R,2R)-1-Benzyl-2-carboxy-2-hydroxy-ethylcarbamoyl)-2′-ethyl-biphenyl-2-carboxylic acid]
16 | 12.6 to 100 nM | O=C(O)c1cc(C(=O)N[C@H](Cc2ccccc2)[C@@H](O)C(=O)O)cc(-c2ccccc2)c1 [Example 10-29, 5-((1R,2R)-1-Benzyl-2-carboxy-2-hydroxy-ethylcarbamoyl)-biphenyl-3-carboxylic acid]
17 | 12.6 to 100 nM | CCCC1=NN(c2cccc(C(=O)N[C@@H](CC(=O)O)Cc3ccccc3Cl)c2)C(=O)C1 [Example 13-9, (R)-4-(2-Chlorophenyl)-3-[3-(5-oxo-3-propyl-4,5-dihydro-pyrazol-1-yl)-benzoylamino]-butyric acid]
18 | 12.6 to 100 nM | Cc1nn(-c2ccc(C(=O)N[C@H](Cc3ccccc3)[C@@H](O)C(=O)O)cc2)c(C)c1Cl [Example 10-1, (2R,3R)-3-[4-(4-Chloro-3,5-dimethyl-pyrazol-1-yl)-benzoylamino]-2-hydroxy-4-phenyl-butyric acid]
19 | 12.6 to 100 nM | CCc1ccc(C(=O)N[C@H](Cc2ccccc2)[C@@H](O)C(=O)O)cc1NC(=O)Nc1ccsc1C(=O)O [Example 10-78, 3-{3-[5-((1R,2R)-1-Benzyl-2-carboxy-2-hydroxy-ethylcarbamoyl)-2-ethyl-phenyl]-ureido}-thiophene-2-carboxylic acid]
20 | 12.6 to 100 nM | O=C(N[C@H](Cc1ccccc1)[C@@H](O)C(=O)O)c1ccc(Cn2cccc2)cc1 [Example 10-44, (2R,3R)-2-Hydroxy-4-phenyl-3-(4-pyrrol-1-ylmethyl-benzoylamino)-butyric acid]
21 | 12.6 to 100 nM | NS(=O)(=O)c1cccc(-c2cccc(C(=O)N[C@H](Cc3ccccc3)[C@@H](O)C(=O)O)c2)c1 [Example 10-30, (2R,3R)-2-Hydroxy-4-phenyl-3-[(3′-sulfamoyl-biphenyl-3-carbonyl)-amino]-butyric acid]
22 | 12.6 to 100 nM | O=C(N[C@H](Cc1ccccc1)[C@@H](O)C(=O)O)c1ccc(CCn2ccnc2)cc1 [Example 10-47, (2R,3R)-2-Hydroxy-3-[4-(2-imidazol-1-yl-ethyl)-benzoylamino]-4-phenyl-butyric acid]
23 | ≤ 1 nM | O=C(N[C@H](Cc1ccccc1Cl)[C@@H](O)C(=O)O)c1cc(Cl)cc(-c2ccccc2C(=O)O)c1 [Example 6-2, 5′-[(1R,2R)-2-Carboxy-1-(2-chlorobenzyl)-2-hydroxy-ethylcarbamoyl]-3′-chloro-biphenyl-2-carboxylic acid]
24 | 1.26 to 10 nM | O=C(O)C[C@@H](Cc1ccccc1Cl)NC(=O)c1cccc(-c2ccccc2C(=O)O)c1 [Example 13-2, 3′-[(R)-2-Carboxy-1-(2-chloro-benzyl)-ethylcarbamoyl]-biphenyl-2-carboxylic acid]
25 | 12.6 to 100 nM | O=C(O)c1cccc(-c2ccc(C(=O)N[C@H](Cc3ccccc3)[C@@H](O)C(=O)O)cc2)c1 [Example 10-51, 4′-((1R,2R)-1-Benzyl-2-carboxy-2-hydroxy-ethylcarbamoyl)-biphenyl-3-carboxylic acid]
26 | 12.6 to 100 nM | Cc1ccc(C(=O)N[C@H](Cc2ccccc2Cl)[C@H](O)C(=O)O)cc1-c1ccccc1C(=O)O [Example 6-5, 5′-[(1R,2S)-2-Carboxy-1-(2-chlorobenzyl)-2-hydroxy-ethylcarbamoyl]-2′-methyl-biphenyl-2-carboxylic acid]
27 | 12.6 to 100 nM | O=C(N[C@H](Cc1ccccc1)[C@@H](O)C(=O)O)c1cccc(-c2cccnc2C(=O)O)c1 [Example 10-64, 3-[3-((1R,2R)-1-Benzyl-2-carboxy-2-hydroxy-ethylcarbamoyl)-phenyl]-pyridine-2-carboxylic acid]
28 | 1.26 to 10 nM | CCc1ccc(C(=O)N[C@H](Cc2ccccc2Cl)[C@@H](O)C(=O)O)cc1N1N=C(C)CC1=O [Example 6-17, (2R,3R)-4-(2-Chlorophenyl)-3-[4-ethyl-3-(3-methyl-5-oxo-4,5-dihydro-pyrazol-1-yl)-benzoylamino]-2-hydroxy-butyric acid]
29 | 12.6 to 100 nM | O=C(N[C@H](Cc1ccccc1)[C@@H](O)C(=O)O)c1ccc(C2CCCCC2)cc1 [Example 10-40, (2R,3R)-3-(4-Cyclohexyl-benzoylamino)-2-hydroxy-4-phenyl-butyric acid]
30 | 12.6 to 100 nM | CC1=NN(c2ccc(C(=O)N[C@@H](CC(=O)O)Cc3ccccc3Cl)cc2)C(=O)C1 [Example 13-6, (R)-4-(2-Chlorophenyl)-3-[4-(3-methyl-5-oxo-4,5-dihydro-pyrazol-1-yl)-benzoylamino]-butyric acid]
